This assay has as its system MV-4-11 cells. Nature of the assay: Gene expression microarray analysis (Affymetrix PrimeView) and GSEA. In kind it is cell-based, human. More on the design: RFU PODN (11730768_x_at) / Fold change /veh PODN (11730768_x_at) / RFU LINC00158 (11744669_a_at) / Fold change /veh LINC00158 (11744669_a_at) / RFU DUSP10 (11751237_a_at) / Fold change /veh DUSP10 (11751237_a_at) / RFU ID3 (11757404_x_at) / Fold change /veh ID3 (11757404_x_at) / RFU PLEKHG5 (11737974_s_at) / Fold change /veh PLEKHG5 (11737974_s_at) / RFU LRRC4B (11730491_at) / Fold change /veh LRRC4B (11730491_at) / RFU GIMAP4 (11747438_a_at) / Fold change /veh GIMAP4 (11747438_a_at) / RFU KRT8 (11758183_x_at) / Fold change /veh KRT8 (11758183_x_at) / RFU CNN1 (11734310_a_at) / Fold change /veh CNN1 (11734310_a_at) / RFU VPS37D (11726825_at) / Fold change /veh VPS37D (11726825_at) / RFU C10orf10 (11716522_x_at) / Fold change /veh C10orf10 (11716522_x_at) / RFU KIR2DL2 /// KIR2DL4 /// KIR2DL5A /// KIR2DL5B /// KIR2DS1 /// KIR2DS2 /// KIR2DS3 /// KIR2DS4 /// KIR3DL3 /// KIR3DL3 /// KIR3DS1 (11738374_at) / Fold change /veh KIR2DL2 /// KIR2DL4 /// KIR2DL5A /// KIR2DL5B /// KIR2DS1 /// KIR2DS2 /// KIR2DS3 /// KIR2DS4 /// KIR3DL3 /// KIR3DL3 /// KIR3DS1 (11738374_at) / RFU C1QL1 (11718748_at) / Fold change /veh C1QL1 (11718748_at) / RFU TMPRSS4 (11747572_a_at) / Fold change /veh TMPRSS4 (11747572_a_at) / RFU HAMP (11756126_x_at) / Fold change /veh HAMP (11756126_x_at) / RFU RNFT2 (11725882_a_at) / Fold change /veh RNFT2 (11725882_a_at) / RFU NR4A2 (11747474_a_at) / Fold change /veh NR4A2 (11747474_a_at) / RFU ABCC12 (11746883_a_at) / Fold change /veh ABCC12 (11746883_a_at) / RFU TMEM136 (11760407_x_at) / Fold change /veh TMEM136 (11760407_x_at) / RFU CLDN22 /// WWC2 (11732394_at) / Fold change /veh CLDN22 /// WWC2 (11732394_at) / RFU HLA-DPB1 (11760878_x_at) / Fold change /veh HLA-DPB1 (11760878_x_at) / RFU SPINT1 (11716480_a_at) / Fold change /veh SPINT1 (11716480_a_at) / RFU GAP43 (11754022_s_at) / Fold change /veh GAP43 (11754022_s_at) / RFU A4GNT (11735810_at) / Fold change /veh A4GNT (11735810_at) / RFU PRB3 (11715151_x_at) / Fold change /veh PRB3 (11715151_x_at) / RFU TUBB4B (11761932_at) / Fold change /veh TUBB4B (11761932_at) / RFU CAPN14 (11732068_a_at) / Fold change /veh CAPN14 (11732068_a_at) / RFU TMCC2 (11721928_a_at) / Fold change /veh TMCC2 (11721928_a_at) / RFU IRGQ (11745062_a_at) / Fold change /veh IRGQ (11745062_a_at) / RFU FAM174B (11720279_a_at) / Fold change /veh FAM174B (11720279_a_at) / RFU TMPRSS4 (11748680_a_at) / Fold change /veh TMPRSS4 (11748680_a_at) / RFU FAM212B (11763350_a_at) / Fold change /veh FAM212B (11763350_a_at) / RFU PLEKHG5 (11743358_a_at) / Fold change /veh PLEKHG5 (11743358_a_at) / RFU ZSCAN30 (11745921_a_at) / Fold change /veh ZSCAN30 (11745921_a_at) / RFU CMKLR1 (11741424_a_at) / Fold change /veh CMKLR1 (11741424_a_at) / RFU LOC101060620 /// MAPK8IP1 (11723275_at) / Fold change /veh LOC101060620 /// MAPK8IP1 (11723275_at) / RFU SPTSSB (11747773_x_at) / Fold change /veh SPTSSB (11747773_x_at) / RFU PRSS12 (11739890_at) / Fold change /veh PRSS12 (11739890_at) / RFU BIN1 (11741810_x_at) / Fold change /veh BIN1 (11741810_x_at) / RFU WNT11 (11732464_a_at) / Fold change /veh WNT11 (11732464_a_at) / RFU C10orf10 (11716521_a_at) / Fold change /veh C10orf10 (11716521_a_at) / RFU C5orf56 (11738089_at) / Fold change /veh C5orf56 (11738089_at) / RFU CYB561 (11721691_x_at) / Fold change /veh CYB561 (11721691_x_at) / RFU ANKRD19P (11752326_a_at) / Fold change /veh ANKRD19P (11752326_a_at) / RFU OR2T12 /// OR2T33 /// OR2T8 (11738714_s_at) / Fold change /veh OR2T12 /// OR2T33 /// OR2T8 (11738714_s_at) / RFU VCAN (11748164_a_at) / Fold change /veh VCAN (11748164_a_at) / RFU JSRP1 (11732532_at) / Fold change /veh JSRP1 (11732532_at) / RFU KRTAP10-11 (11738290_x_at) / Fold change /veh KRTAP10-11 (11738290_x_at) / RFU MYO3A (11730013_a_at) / Fold change /veh MYO3A (11730013_a_at) / RFU EBF3 (11725865_a_at) / Fold change /veh EBF3 (11725865_a_at) / RFU CAMK2N1 (11719241_x_at) / Fold change /veh CAMK2N1 (11719241_x_at) / RFU C5orf56 (11738088_a_at) / Fold change /veh C5orf56 (11738088_a_at) / RFU OLFML3 (11715873_a_at) / Fold change /veh OLFML3 (11715873_a_at) / RFU LOC100653217 /// NTM (11731650_a_at) / Fold change /veh LOC100653217 /// NTM (11731650_a_at) / RFU MAPK11 (11762145_a_at) / Fold change /veh MAPK11 (11762145_a_at) / RFU FIZ1 (11724087_x_at) / Fold change /veh FIZ1 (11724087_x_at) / RFU OASL (11726364_x_at) / Fold change /veh OASL (11726364_x_at) / RFU SOX15 (11748057_x_at) / Fold change /veh SOX15 (11748057_x_at) / RFU CD79A (11719716_a_at) / Fold change /veh CD79A (11719716_a_at) / RFU HIST1H1D (11736915_at) / Fold change /veh HIST1H1D (11736915_at) / RFU CASKIN2 (11723855_a_at) / Fold change /veh CASKIN2 (11723855_a_at) / RFU LOC730098 (11760151_x_at) / Fold change /veh LOC730098 (11760151_x_at) / RFU OR4N2 (11742367_at) / Fold change /veh OR4N2 (11742367_at) / RFU PRRT2 (11749266_a_at) / Fold change /veh PRRT2 (11749266_a_at) / RFU SNX32 (11753110_a_at) / Fold change /veh SNX32 (11753110_a_at) / RFU CDHR5 (11726645_a_at) / Fold change /veh CDHR5 (11726645_a_at) / RFU RCAN1 (11760418_a_at) / Fold change /veh RCAN1 (11760418_a_at) / RFU FAM167A (11723789_a_at) / Fold change /veh FAM167A (11723789_a_at) / RFU FAM26E (11764081_at) / Fold change /veh FAM26E (11764081_at) / RFU ISYNA1 (11749810_s_at) / Fold change /veh ISYNA1 (11749810_s_at) / RFU ACY1 (11761880_at) / Fold change /veh ACY1 (11761880_at) / RFU 11764098_at / Fold change /veh 11764098_at / RFU SAMD14 (11745864_x_at) / Fold change /veh SAMD14 (11745864_x_at) / RFU NPB (11741838_a_at) / Fold change /veh NPB (11741838_a_at) / RFU TMPRSS6 (11731388_a_at) / Fold change /veh TMPRSS6 (11731388_a_at) / RFU KRTAP10-2 (11738614_at) / Fold change /veh KRTAP10-2 (11738614_at) / RFU ARHGAP8 /// PRR5-ARHGAP8 (11727945_x_at) / Fold change /veh ARHGAP8 /// PRR5-ARHGAP8 (11727945_x_at) / RFU KRTAP5-7 /// NADSYN1 (11734609_at) / Fold change /veh KRTAP5-7 /// NADSYN1 (11734609_at) / RFU RASL12 (11751679_a_at) / Fold change /veh RASL12 (11751679_a_at) / RFU CDKN2B (11736163_a_at) / Fold change /veh CDKN2B (11736163_a_at) / RFU PRF1 (11729649_at) / Fold change /veh PRF1 (11729649_at) / RFU, ZNF638 /// ZNF638-IT1 / Fold change vs veh, ZNF638 /// ZNF638-IT1 / RFU, PANK3 / Fold change vs veh, PANK3 / RFU, SH3YL1 / Fold change vs veh, SH3YL1 / RFU, ZEB2 / Fold change vs veh, ZEB2 / RFU, NRIP1 / Fold change vs veh, NRIP1 / RFU, PTTG1IP / Fold change vs veh, PTTG1IP / RFU, CAPN2 / Fold change vs veh, CAPN2 / RFU, MED14 / Fold change vs veh, MED14 / RFU, SNORA58 / Fold change vs veh, SNORA58 / RFU, C1orf63 / Fold change vs veh, C1orf63 / RFU, LRRFIP1 / Fold change vs veh, LRRFIP1 / RFU, NDUFAF7 / Fold change vs veh, NDUFAF7 / RFU, SLC12A2 / Fold change vs veh, SLC12A2 / RFU, IBTK / Fold change vs veh, IBTK / RFU, ESF1 / Fold change vs veh, ESF1 / Fold change vs veh, TMEM50B / RFU, TAOK1 / Fold change vs veh, TAOK1 / RFU, ACBD3 / Fold change vs veh, ACBD3 / RFU, TMA16 / Fold change vs veh, TMA16 / RFU, RWDD3 / Fold change vs veh, RWDD3 / RFU, BCAT1 / Fold change vs veh, BCAT1 / RFU, EDEM3 / Fold change vs veh, EDEM3 / RFU, TMEM33 / Fold change vs veh, TMEM33 / RFU, WDR75 / Fold change vs veh, WDR75 / RFU, AHCTF1 / Fold change vs veh, AHCTF1 / RFU, TFRC / Fold change vs veh, TFRC / RFU, ZDHHC17 / Fold change vs veh, ZDHHC17 / RFU, NOM1 / Fold change vs veh, NOM1 / RFU, ARL8B / Fold change vs veh, ARL8B / RFU, ZBTB11 / Fold change vs veh, ZBTB11 / RFU, TAMM41 / Fold change vs veh, TAMM41 / RFU, KIAA1704 /// LOC100996395 / Fold change vs veh, KIAA1704 /// LOC100996395 / RFU, ING1 / Fold change vs veh, ING1 / RFU, TRMT61B / Fold change vs veh, TRMT61B / RFU, FUBP3 / Fold change vs veh, FUBP3 / RFU, TP53 / Fold change vs veh, TP53 / RFU, TNKS2 / Fold change vs veh, TNKS2 / RFU, ZFP14 / Fold change vs veh, ZFP14 / RFU, ACTR2 / Fold change vs veh, ACTR2 / RFU, PPP3R1 / Fold change vs veh, PPP3R1 / RFU, PIK3R1 / Fold change vs veh, PIK3R1 / RFU, HNRNPA1 / Fold change vs veh, HNRNPA1 / RFU, RNF170 / Fold change vs veh, RNF170 / RFU, ZNF28 / Fold change vs veh, ZNF28 / RFU, RNGTT / Fold change vs veh, RNGTT / RFU, OGT / Fold change vs veh, OGT / RFU, BRD1 / Fold change vs veh, BRD1 / RFU, MARS / Fold change vs veh, MARS / RFU, ZNF655 / Fold change vs veh, ZNF655 / RFU, FAHD1 / Fold change vs veh, FAHD1 / RFU, BDP1 / Fold change vs veh, BDP1 / RFU, LRRCC1 / Fold change vs veh, LRRCC1 / RFU, ARID1A / Fold change vs veh, ARID1A / RFU, ZNF146 / Fold change vs veh, ZNF146 / RFU, ZNF330 / Fold change vs veh, ZNF330 / RFU, GPN3 / Fold change vs veh, GPN3 / RFU, C9orf123 / Fold change vs veh, C9orf123 / RFU, N4BP2L2 / Fold change vs veh, N4BP2L2 / RFU, ARFIP1 / Fold change vs veh, ARFIP1 / RFU, FAM179B / Fold change vs veh, FAM179B / RFU, BCL10 / Fold change vs veh, BCL10 / RFU, UHRF1BP1L / Fold change vs veh, UHRF1BP1L / RFU, BET1 / Fold change vs veh, BET1 / RFU, CNOT2 / Fold change vs veh, CNOT2 / RFU, ZNF268 / Fold change vs veh, ZNF268 / Fold change vs veh, ZNF507 / RFU, DGCR2 / Fold change vs veh, DGCR2 / RFU, WDSUB1 / Fold change vs veh, WDSUB1 / Fold change vs veh, HSP90B1 /// MIR3652 / RFU, ADSS / Fold change vs veh, ADSS / RFU, GK / Fold change vs veh, GK / RFU, ZNF148 / Fold change vs veh, ZNF148 / RFU, TAF9 / Fold change vs veh, TAF9 / RFU, SLC1A5 / Fold change vs veh, SLC1A5 / RFU, SLMO2 / Fold change vs veh, SLMO2 / RFU, ABCC4 / Fold change vs veh, ABCC4 / RFU, LOC101060439 /// RAP1B / Fold change vs veh, LOC101060439 /// RAP1B / RFU, RFX7 / Fold change vs veh, RFX7 / RFU, GTPBP10 / Fold change vs veh, GTPBP10 / RFU, CNEP1R1 / Fold change vs veh, CNEP1R1 / RFU, BIVM-ERCC5 /// ERCC5 / Fold change vs veh, BIVM-ERCC5 /// ERCC5 / RFU, ILF3 / Fold change vs veh, ILF3 / RFU 11762660_at / Fold change /veh 11762660_at / RFU VCAN (11757783_s_at) / Fold change /veh VCAN (11757783_s_at) / RFU DDX43 (11728927_at) / Fold change /veh DDX43 (11728927_at) / RFU KRT8 (11758188_x_at) / Fold change /veh KRT8 (11758188_x_at) / RFU NKD1 (11759106_at) / Fold change /veh NKD1 (11759106_at) / RFU SRD5A1 (11742802_a_at) / Fold change /veh SRD5A1 (11742802_a_at) / RFU TPSAB1 /// TPSB2 (11721975_s_at) / Fold change /veh TPSAB1 /// TPSB2 (11721975_s_at) / RFU GSTM3 (11746129_a_at) / Fold change /veh GSTM3 (11746129_a_at) / RFU IL23R (11737362_x_at) / Fold change /veh IL23R (11737362_x_at) / RFU TMEM51 (11727254_a_at) / Fold change /veh TMEM51 (11727254_a_at) / RFU PIWIL2 (11732686_x_at) / Fold change /veh PIWIL2 (11732686_x_at) / RFU ORM1 (11744905_x_at) / Fold change /veh ORM1 (11744905_x_at) / RFU CCDC152 (11743942_at) / Fold change /veh CCDC152 (11743942_at) / RFU ECM1 (11717891_a_at) / Fold change /veh ECM1 (11717891_a_at) / RFU IL23R (11748794_a_at) / Fold change /veh IL23R (11748794_a_at) / RFU TNFAIP8L3 (11732012_x_at) / Fold change /veh TNFAIP8L3 (11732012_x_at) / RFU MBOAT4 (11741988_at) / Fold change /veh MBOAT4 (11741988_at) / RFU 11764193_at / Fold change /veh 11764193_at / RFU TMEM53 (11763286_at) / Fold change /veh TMEM53 (11763286_at) / RFU MAGEB2 (11727129_at) / Fold change /veh MAGEB2 (11727129_at) / RFU TMEM200A (11744735_a_at) / Fold change /veh TMEM200A (11744735_a_at) / RFU CCDC152 (11751479_a_at) / Fold change /veh CCDC152 (11751479_a_at) / RFU FAM211A (11726209_a_at) / Fold change /veh FAM211A (11726209_a_at) / RFU RGS16 (11746705_a_at) / Fold change /veh RGS16 (11746705_a_at) / RFU VCAN (11755009_s_at) / Fold change /veh VCAN (11755009_s_at) / RFU RHOB (11743442_s_at) / Fold change /veh RHOB (11743442_s_at) / RFU RGS16 (11720943_a_at) / Fold change /veh RGS16 (11720943_a_at) / RFU RGS16 (11720944_at) / Fold change /veh RGS16 (11720944_at) / RFU, VPS4B / Fold change vs veh, VPS4B / RFU, CREB1 / Fold change vs veh, CREB1 / RFU, DNAJC13 / Fold change vs veh, DNAJC13 / RFU, GNAQ / Fold change vs veh, GNAQ / RFU, CDK5R1 / Fold change vs veh, CDK5R1 / RFU, ZRANB3 / Fold change vs veh, ZRANB3 / RFU, CUL4A / Fold change vs veh, CUL4A / RFU, CCNY / Fold change vs veh, CCNY / RFU, UFL1 / Fold change vs veh, UFL1 / RFU, COG3 / Fold change vs veh, COG3 / RFU, DIAPH2 / Fold change vs veh, DIAPH2 / RFU, SKA2 / Fold change vs veh, SKA2 / RFU, AFF3 / Fold change vs veh, AFF3 / RFU, LMF1 / Fold change vs veh, LMF1 / RFU, IPO11 / Fold change vs veh, IPO11 / RFU, DFFB / Fold change vs veh, DFFB / RFU, FOXP1 / Fold change vs veh, FOXP1 / RFU, CARD8 / Fold change vs veh, CARD8 / RFU, STRN3 / Fold change vs veh, STRN3 / RFU, ADK / Fold change vs veh, ADK / RFU, RASSF2 / Fold change vs veh, RASSF2 / RFU, WIPF1 / Fold change vs veh, WIPF1 / RFU, LARP1B / Fold change vs veh, LARP1B / RFU, RASA1 / Fold change vs veh, RASA1 / RFU, RB1 / Fold change vs veh, RB1 / RFU, PPFIA1 / Fold change vs veh, PPFIA1 / RFU, MAT2A / Fold change vs veh, MAT2A / RFU, CCT5 / Fold change vs veh, CCT5 / RFU, WDR92 / Fold change vs veh, WDR92 / RFU, CUX1 / Fold change vs veh, CUX1 / RFU, TTC7A / Fold change vs veh, TTC7A / RFU, TMEM135 / Fold change vs veh, TMEM135 / RFU, DEPTOR / Fold change vs veh, DEPTOR / RFU, CPM / Fold change vs veh, CPM / RFU, DNAJB6 / Fold change vs veh, DNAJB6 / RFU, CACNA2D3 / Fold change vs veh, CACNA2D3 / RFU, DTX4 / Fold change vs veh, DTX4 / RFU, TFCP2 / Fold change vs veh, TFCP2 / RFU, GMCL1 /// GMCL1P1 / Fold change vs veh, GMCL1 /// GMCL1P1 / RFU, AEBP2 / Fold change vs veh, AEBP2 / RFU, SNHG1 /// SNORD22 /// SNORD25 /// SNORD26 /// SNORD27 /// SNORD28 /// SNORD29 /// SNORD31 / Fold change vs veh, SNHG1 /// SNORD22 /// SNORD25 /// SNORD26 /// SNORD27 /// SNORD28 /// SNORD29 /// SNORD31 / Fold change (Aza/veh), C12orf56 (ProbeSet 11735607_a_at) / Fold change (ACY-1035/veh), C12orf56 (ProbeSet 11735607_a_at) / Fold change (Aza/veh), FGFR1OP (ProbeSet 11751329_s_at) / Fold change (ACY-1035/veh), FGFR1OP (ProbeSet 11751329_s_at) / Fold change (Aza/veh), VPS36 (ProbeSet 11739960_a_at) / Fold change (ACY-1035/veh), VPS36 (ProbeSet 11739960_a_at) / RFU SYPL1 (11715823_x_at) / Fold change /veh SYPL1 (11715823_x_at) / RFU IGFBP7 (11715501_s_at) / Fold change /veh IGFBP7 (11715501_s_at) / RFU REEP3 (11722064_at) / Fold change /veh REEP3 (11722064_at) / RFU IGLL1 (11728026_x_at) / Fold change /veh IGLL1 (11728026_x_at): dose or concentration left out as unconfirmed. To be noted: MV-4-11 cells, 48 hours.

Take `Nc1ncn([C@@H]2O[C@H](CO)[C@@H](O)[C@H]2O)c(=O)n1` [azacitidine]: the “Fold change /veh TPSAB1 /// TPSB2 (11721975_s_at)” value was 1.21.

The values are drawn from publication PMC5218480 (PLoS ONE, 2017).
